Results as given in patent US12617783B2, “Heterocyclic GLP-1R agonists” (BIOMEA FUSION, INC., priority 2024, dated 2026).

Biological target: T1, human GLP-1R (Homo sapiens, UniProt P43220)
T1 construct: host or cells: HEK293
Assay: GLP-1R cAMP assay (Example B1b, HTRF, 30 min at 37°)
Type: cell-based
Details: cAMP accumulation in HEK293 expressing human GLP-1R, no BETP, 30 min at 37° (Method B1b), Table 1
Procedure: Assay was carried out with HEK293 expressing human GLP-1R using HTRF assay, developed by Wuxi Apptec. The method is a competitive assay between native cAMP produced by the cells and exogenous cAMP labeled with a proprietary dye d2. The tracer binding is visualized by a mAb anti-cAMP labeled with Cryptate. The signal (i.e. energy transfer) is inversely proportional to the concentration of CAMP in either standard or experimental sample. Compounds were tested in the absence of BETP. Ten microliter of cell suspension in assay buffer (5 mM HEPES, 500 μM IBMX, 0.1% BSA) were added to each well (1,000 cells per well) in a low volume 384-well plate for the assay. Serially diluted compounds were added in 100 nL volume to duplicate wells, by Labcyte Echo. GLP-1 (7-37) was used as positive control. Assay plate was incubated for 30 minutes at 37°. Stock of cAMP Detection Solution was prepared by mixing 38 parts of cAMP lysis buffer, 1 part of cAMP-D2, 1 part of anti-cAMP cryptate reagent (Cisbio #62AM4PEJ). Ten microliter of the cAMP Detection Solution was added to each well, and the assay plate was incubated for 1 hour at room temperature in the dark. Plates were read on Envision plate reader. The data were analyzed by ScreenUltra in Dotmatics, with % activation expressed using following formula: (Signal ratio […]*10000−negative control)/(postive control−negative control)*100. Dose response curves were plotted and EC50 values calculated by non-linear regression using 4-parameter fit. The potency (EC50) values for cAMP accumulation in HEK293 cells are reported in the Table 1 below (for compounds ID 610-708).

T1 sequence (P43220 24-463): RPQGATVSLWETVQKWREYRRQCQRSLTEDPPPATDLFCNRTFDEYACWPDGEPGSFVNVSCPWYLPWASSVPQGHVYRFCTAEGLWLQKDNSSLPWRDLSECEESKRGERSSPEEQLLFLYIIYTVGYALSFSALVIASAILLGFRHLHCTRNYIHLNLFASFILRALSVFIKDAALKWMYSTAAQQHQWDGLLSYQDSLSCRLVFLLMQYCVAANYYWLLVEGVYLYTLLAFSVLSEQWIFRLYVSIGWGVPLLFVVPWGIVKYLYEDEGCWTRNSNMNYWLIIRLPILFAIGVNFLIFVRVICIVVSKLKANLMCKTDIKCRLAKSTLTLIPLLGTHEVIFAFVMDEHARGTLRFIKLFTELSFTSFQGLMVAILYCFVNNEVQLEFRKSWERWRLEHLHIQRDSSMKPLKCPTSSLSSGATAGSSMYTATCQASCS

**Q.** Which EC50 does the source give for `Cc1cc(-n2nc3c(c2-n2ccn(-c4ccc5c(cnn5C)c4F)c2=O)[C@@H]2CC[C@H](C3)N2C(=O)c2c(F)c3cc(C4CCOC(C)(C)C4)ccc3n2[C@@]2(c3noc(=O)[nH]3)C[C@@H]2C)cc(C)c1F` (stereo in doubt) [Compound 712, 3-[(1S,2S)-1-[5-[(4S)-2,2-dimethyltetrahydropyran-4-yl]-3-fluoro-2-[(1S,8R)-4-(4-fluoro-3,5-dimethyl-phenyl)-3-[3-(4-fluoro-1-methyl-indazol-5-yl)-2-oxo-imidazol-1-yl]-4,5,11-triazatricyclo[6.2.1.02,6]undeca-2,5-diene-11-carbonyl]indol-1-yl]-2-methyl-cyclopropyl]-4H-1,2,4-oxadiazol-5-one] here?
**A.** 0.112 µM

**Q.** With `Cc1cc(-n2nc3c(c2-n2ccn(-c4ccc5c(cnn5C)c4F)c2=O)[C@@H]2CC[C@H](C3)N2C(=O)c2c(F)c3cc(C4CCOC(C)(C)C4)ccc3n2[C@@]2(c3noc(=O)[nH]3)C[C@@H]2C)cc(C)c1F` (stereo in doubt) [Compound 713, 3-[(1S,2S)-1-[5-[(4R)-2,2-dimethyltetrahydropyran-4-yl]-3-fluoro-2-[(1S,8R)-4-(4-fluoro-3,5-dimethyl-phenyl)-3-[3-(4-fluoro-1-methyl-indazol-5-yl)-2-oxo-imidazol-1-yl]-4,5,11-triazatricyclo[6.2.1.02,6]undeca-2,5-diene-11-carbonyl]indol-1-yl]-2-methyl-cyclopropyl]-4H-1,2,4-oxadiazol-5-one] as the compound, how does the EC50 read?
**A.** 0.004 µM

**Q.** With `Cc1cc(-n2nc3c(c2-n2ccn(-c4ccc5ccncc5c4F)c2=O)[C@@H]2CCC[C@H](C3)N2C(=O)c2cc3cc([C@H]4CCOC5(CC5)C4)ccc3n2[C@@]2(c3noc(=O)[nH]3)C[C@@H]2C)cc(C)c1F` [Compound 610, 3-((1S,2S)-1-(2-((4S,8R)-2-(4-fluoro-3,5-dimethylphenyl)-3-(3-(8-fluoroisoquinolin-7-yl)-2-oxo-2,3-dihydro-1H-imidazol-1-yl)-4,5,6,7,8,9-hexahydro-2H-4,8-epiminocycloocta [c]pyrazole-10-carbonyl)-5-((S)-4-oxaspiro[2.5]octan-7-yl)-1H-indol-1-yl)-2-methylcyclopropyl)-1,2,4-oxadiazol-5 (4H)-one] as the compound, how does the EC50 read?
**A.** 0.0008 µM

**Q.** `CNC(=O)Cc1ccc(-n2ccn(-c3c4c(nn3-c3cc(C)c(F)c(C)c3)C[C@H]3CCC[C@@H]4N3C(=O)c3cc4cc([C@H]5CCOC(C)(C)C5)ccc4n3[C@@]3(c4noc(=O)[nH]4)C[C@@H]3C)c2=O)cc1F` [Compound 611, 2-(4-(3-((4S,8R)-10-(5-((S)-2,2-dimethyltetrahydro-2H-pyran-4-yl)-1-((1S,2S)-2-methyl-1-(5-oxo-4,5-dihydro-1,2,4-oxadiazol-3-yl)cyclopropyl)-1H-indole-2-carbonyl)-2-(4-fluoro-3,5-dimethylphenyl)-4,5,6,7,8,9-hexahydro-2H-4,8-epiminocycloocta [c]pyrazol-3-yl)-2-oxo-2,3-dihydro-1H-imidazol-1-yl)-2-fluorophenyl)-N-methylacetamide] was tested. Which EC50 did it give?
**A.** 0.0051 µM

**Q.** How did the EC50 turn out when `Cc1cc(-n2nc3c(c2-n2ccn(-c4ccc(N(C)C(=O)C5CC5)c(Cl)c4)c2=O)[C@@H]2CCC[C@H](C3)N2C(=O)c2cc3cc([C@H]4CCOC(C)(C)C4)ccc3n2[C@@]2(c3noc(=O)[nH]3)C[C@@H]2C)cc(C)c1F` [Compound 612, N-(2-chloro-4-(3-((4S,8R)-10-(5-((S)-2,2-dimethyltetrahydro-2H-pyran-4-yl)-1-((1S,2S)-2-methyl-1-(5-oxo-4,5-dihydro-1,2,4-oxadiazol-3-yl)cyclopropyl)-1H-indole-2-carbonyl)-2-(4-fluoro-3,5-dimethylphenyl)-4,5,6,7,8,9-hexahydro-2H-4,8-epiminocycloocta [c]pyrazol-3-yl)-2-oxo-2,3-dihydro-1H-imidazol-1-yl)phenyl)-N-methylcyclopropanecarboxamide] was run?
**A.** 0.0019 µM

**Q.** For `Cc1cc(-n2nc3c(c2-n2ccn(-c4ccc5c(cnn5C)c4F)c2=O)[C@@H]2CC[C@H](C3)N2C(=O)c2cc3cc([C@H]4CCOC(C)(C)C4)ccc3n2[C@@]2(c3noc(=O)n3C)C[C@@H]2C)cc(C)c1F` [Compound 613, 3-[(1S,2S)-1-[5-[(4S)-2,2-dimethyltetrahydropyran-4-yl]-2-[(1S,8R)-4-(4-fluoro-3,5-dimethyl-phenyl)-3-[3-(4-fluoro-1-methyl-indazol-5-yl)-2-oxo-imidazol-1-yl]-4,5,11-triazatricyclo[6.2.1.02,6]undeca-2,5-diene-11-carbonyl]indol-1-yl]-2-methyl-cyclopropyl]-4-methyl-1,2,4-oxadiazol-5-one], which EC50 is on record?
**A.** 0.0505 µM

**Q.** For `Cc1cc(-n2nc3c(c2-n2ccn(-c4ccc5cnccc5c4F)c2=O)[C@@H]2CCC[C@H](C3)N2C(=O)c2cc3cc([C@H]4CCOC5(CC5)C4)ccc3n2[C@@]2(c3noc(=O)[nH]3)C[C@@H]2C)cc(C)c1F` [Compound 614, 3-((1S,2S)-1-(2-((4S,8R)-2-(4-fluoro-3,5-dimethylphenyl)-3-(3-(5-fluoroisoquinolin-6-yl)-2-oxo-2,3-dihydro-1H-imidazol-1-yl)-4,5,6,7,8,9-hexahydro-2H-4,8-epiminocycloocta [c]pyrazole-10-carbonyl)-5-((S)-4-oxaspiro[2.5]octan-7-yl)-1H-indol-1-yl)-2-methylcyclopropyl)-1,2,4-oxadiazol-5 (4H)-one], which EC50 is on record?
**A.** 0.0006 µM

**Q.** With `Cc1cc(-n2nc3c(c2-n2ccn(-c4ccc5c(cnn5C)c4F)c2=O)[C@@H]2CCC[C@H](C3)N2C(=O)c2cc3cc(C4CCOC(C)(C)C4)cc(F)c3n2[C@@]2(c3noc(=O)[nH]3)C[C@@H]2C)cc(C)c1F` (stereo partly drawn) [Compound 615, 3-((1S,2S)-1-(5-(2,2-dimethyltetrahydro-2H-pyran-4-yl)-7-fluoro-2-((4S,8R)-3-(3-(4-fluoro-1-methyl-1H-indazol-5-yl)-2-oxo-2,3-dihydro-1H-imidazol-1-yl)-2-(4-fluoro-3,5-dimethylphenyl)-4,5,6,7,8,9-hexahydro-2H-4,8-epiminocycloocta [c]pyrazole-10-carbonyl)-1H-indol-1-yl)-2-methylcyclopropyl)-1,2,4-oxadiazol-5 (4H)-one] as the compound, how does the EC50 read?
**A.** 0.0142 µM

Biological target: T1, human GLP-1R
Assay: GLP-1R cAMP assay (Example B1a, HTRF, 30 min at room temperature)
Type: cell-based
Details: cAMP accumulation in HEK293 expressing human GLP-1R, no BETP, 30 min room temperature (Method B1a, compounds ID 1-609), Table 1; read-out: EC50
In short: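 Competitive HTRF read-out of cAMP after 30 min room-temperature stimulation, BETP absent, of human GLP-1R-HEK293 cells (1,000/well) in HEPES buffer with 500 μM IBMX and 0.1% BSA. Activation normalised to GLP-1(7-37) positive control. EC50 from 4-parameter non-linear regression.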

**Q.** `Cc1cc(-n2nc3c(c2-n2ccn(-c4ccc5c(cnn5C)c4F)c2=O)[C@H](C)N(C(=O)c2cc4cc([C@H]5CCOC6(CC6)C5)ccc4n2[C@@]2(c4noc(=O)[nH]4)C[C@@H]2C)CCC3)cc(C)c1F` [Compound 606, 3-((1S,2S)-1-(2-((S)-3-(3-(4-fluoro-1-methyl-1H-indazol-5-yl)-2-oxo-2,3-dihydro-1H-imidazol-1-yl)-2-(4-fluoro-3,5-dimethylphenyl)-4-methyl-2,4,5,6,7,8-hexahydropyrazolo[4,3-c]azepine-5-carbonyl)-5-((S)-4-oxaspiro[2.5]octan-7-yl)-1H-indol-1-yl)-2-methylcyclopropyl)-1,2,4-oxadiazol-5 (4H)-one] was tested. Which EC50 did it give?
**A.** 80.4 nM

**Q.** With `Cc1cc(-n2nc3c(c2-n2ccn(-c4ccc5c(cnn5C)c4F)c2=O)[C@H](C)N(C(=O)c2cc4cc(C5CCOCC5)ccc4n2[C@@]2(c4noc(=O)[nH]4)C[C@@H]2C)CCC3)cc(C)c1F` [Compound 607, 3-((1S,2S)-1-(2-((S)-3-(3-(4-fluoro-1-methyl-1H-indazol-5-yl)-2-oxo-2,3-dihydro-1H-imidazol-1-yl)-2-(4-fluoro-3,5-dimethylphenyl)-4-methyl-2,4,5,6,7,8-hexahydropyrazolo[4,3-c]azepine-5-carbonyl)-5-(tetrahydro-2H-pyran-4-yl)-1H-indol-1-yl)-2-methylcyclopropyl)-1,2,4-oxadiazol-5 (4H)-one] as the compound, how does the EC50 read?
**A.** 53.7 nM

**Q.** How did the EC50 turn out when `Cc1cc(-n2nc3c(c2-n2ccn(-c4ccc5c(cnn5C)c4F)c2=O)[C@@H]2CCC[C@H](C3)N2S(=O)(=O)c2cc3cc([C@H]4CCOC5(CC5)C4)ccc3n2[C@@]2(c3noc(=O)[nH]3)C[C@@H]2C)cc(C)c1F` [Compound 608, 3-[(1S,2S)-1-[2-[[(1S,8R)-4-(4-fluoro-3,5-dimethyl-phenyl)-3-[3-(4-fluoro-1-methyl-indazol-5-yl)-2-oxo-imidazol-1-yl]-4,5,12-triazatricyclo[6.3.1.02,6]dodeca-2,5-dien-12-yl]sulfonyl]-5-[(7S)-4-oxaspiro[2.5]octan-7-yl]indol-1-yl]-2-methyl-cyclopropyl]-4H-1,2,4-oxadiazol-5-one] was run?
**A.** ≥ 10000 nM

**Q.** `Cc1cc(-n2nc3c(c2-n2ccn(-c4ccc5c(cnn5C)c4F)c2=O)[C@@H]2CCC[C@H](C3)N2S(=O)(=O)c2cc3cc([C@H]4CCOC5(CC5)C4)ccc3n2[C@]2(c3noc(=O)[nH]3)C[C@@H]2C)cc(C)c1F` [Compound 609, 3-[(1R,2S)-1-[2-[[(1S,8R)-4-(4-fluoro-3,5-dimethyl-phenyl)-3-[3-(4-fluoro-1-methyl-indazol-5-yl)-2-oxo-imidazol-1-yl]-4,5,12-triazatricyclo[6.3.1.02,6]dodeca-2,5-dien-12-yl]sulfonyl]-5-[(7S)-4-oxaspiro [2.5]octan-7-yl]indol-1-yl]-2-methyl-cyclopropyl]-4H-1,2,4-oxadiazol-5-one] was tested. Which EC50 did it give?
**A.** ≥ 10000 nM
